Where “and” joins values, the source holds several entries; their conditions need not be identical. Identical values can stand only once.
Experiments:
Format in all cases: in vivo
[1] = tested on: Barnyardgrass; experiment: pre-emergence herbicide test; settings: Echinochloa crus-galli, pre-emergence, 0.25 lb/A; read-out: % plant inhibition
Method in brief: (§1)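 Soil-applied pre-emergence screen: compound added to cover topsoil over sown seeds, pans held on greenhouse bench with subirrigation, % inhibition scored ~2 weeks later.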

[2] = tested on: Bedstraw Catchweed; experiment: pre-emergence herbicide test; settings: Galium aparine, pre-emergence, 0.25 lb/A; read-out: % plant inhibition
Method in brief: as §1

[3] = tested on: Birdseye Speedwell; experiment: pre-emergence herbicide test; settings: pre-emergence, 0.25 lb/A; read-out: % plant inhibition
Method in brief: as §1

[4] = tested on: Blackgrass; experiment: pre-emergence herbicide test; settings: Alopecurus myosuroides, pre-emergence, 0.25 lb/A; read-out: % plant inhibition
Method in brief: as §1

[5] = tested on: Cocklebur; experiment: pre-emergence herbicide test; settings: 0.25 lb/A; for inhibition at 280.212 g/ha: Xanthium strumarium, pre-emergence, read-out: % plant inhibition
Method in brief: as §1

[6] = tested on: Common Chickweed; experiment: pre-emergence herbicide test; settings: pre-emergence, 0.25 lb/A; read-out: % plant inhibition
Method in brief: as §1

[7] = tested on: Corn; experiment: pre-emergence herbicide test; settings: Zea mays, pre-emergence, 0.25 lb/A; read-out: % plant inhibition
Method in brief: as §1

[8] = tested on: Downy Brome; experiment: pre-emergence herbicide test; settings: Bromus tectorum, pre-emergence, 0.25 lb/A; read-out: % plant inhibition
Method in brief: as §1

[9] = tested on: Giant Foxtail; experiment: pre-emergence herbicide test; settings: 0.25 lb/A; for inhibition at 280.212 g/ha: Setaria faberi, pre-emergence, read-out: % plant inhibition
Method in brief: as §1

[10] = tested on: Green Foxtail; experiment: pre-emergence herbicide test; settings: Setaria viridis, pre-emergence; 0.25 lb/A; read-out: % plant inhibition
Method in brief: as §1

[11] = tested on: Morning Glory; experiment: pre-emergence herbicide test; settings: 0.25 lb/A; for inhibition at 280.212 g/ha: Ipomoea, pre-emergence, read-out: % plant inhibition
Method in brief: as §1

[12] = tested on: Rape; experiment: pre-emergence herbicide test; settings: pre-emergence, 0.25 lb/A; read-out: % plant inhibition
Method in brief: as §1

[13] = tested on: Seedling Johnsongrass; experiment: pre-emergence herbicide test; settings: Sorghum halepense, pre-emergence, 0.25 lb/A; read-out: % plant inhibition
Method in brief: as §1

[14] = tested on: Soybean; experiment: pre-emergence herbicide test; settings: Glycine max, pre-emergence, 0.25 lb/A; read-out: % plant inhibition
Method in brief: as §1

[15] = tested on: Velvetleaf; experiment: pre-emergence herbicide test; settings: Abutilon theophrasti, pre-emergence, 0.25 lb/A; read-out: % plant inhibition
Method in brief: as §1

[16] = tested on: Wheat; experiment: pre-emergence herbicide test; settings: Triticum aestivum, pre-emergence, 0.25 lb/A; read-out: % plant inhibition
Method in brief: as §1

[17] = tested on: Wild Oats; experiment: pre-emergence herbicide test; settings: Avena fatua, pre-emergence, 0.25 lb/A; read-out: % plant inhibition
Method in brief: as §1

[18] = tested on: Barnyardgrass; experiment: post-emergence herbicide test; settings: Echinochloa crus-galli, post-emergence, 0.25 lb/A; read-out: % plant inhibition
Method in brief: (§2)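 Plants were raised from seed in topsoil pans in the greenhouse and treated post-emergence at two to three weeks of age. Candidate chemical was applied in spray solution or suspension containing about 0.4% emulsifier at 1870 L/Ha. Activity recorded as percent inhibition.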

[19] = tested on: Bedstraw Catchweed; experiment: post-emergence herbicide test; settings: Galium aparine, post-emergence, 0.25 lb/A; read-out: % plant inhibition
Method in brief: as §2

[20] = tested on: Birdseye Speedwell; experiment: post-emergence herbicide test; settings: post-emergence, 0.25 lb/A; read-out: % plant inhibition
Method in brief: as §2

[21] = tested on: Blackgrass; experiment: post-emergence herbicide test; settings: Alopecurus myosuroides, post-emergence, 0.25 lb/A; read-out: % plant inhibition
Method in brief: as §2

[22] = tested on: Cocklebur; experiment: post-emergence herbicide test; settings: Xanthium strumarium, post-emergence, 0.25 lb/A; read-out: % plant inhibition
Method in brief: as §2

[23] = tested on: Common Chickweed; experiment: post-emergence herbicide test; settings: post-emergence, 0.25 lb/A; read-out: % plant inhibition
Method in brief: as §2

[24] = tested on: Corn; experiment: post-emergence herbicide test; settings: Zea mays, post-emergence, 0.25 lb/A; read-out: % plant inhibition
Method in brief: as §2

[25] = tested on: Downy Brome; experiment: post-emergence herbicide test; settings: Bromus tectorum, post-emergence, 0.25 lb/A; read-out: % plant inhibition
Method in brief: as §2

[26] = tested on: Giant Foxtail; experiment: post-emergence herbicide test; settings: Setaria faberi, post-emergence, 0.25 lb/A; read-out: % plant inhibition
Method in brief: as §2

[27] = tested on: Green Foxtail; experiment: post-emergence herbicide test; settings: Setaria viridis, post-emergence, 0.25 lb/A; read-out: % plant inhibition
Method in brief: as §2

[28] = tested on: Morning Glory; experiment: post-emergence herbicide test; settings: Ipomoea, post-emergence, 0.25 lb/A; read-out: % plant inhibition
Method in brief: as §2

[29] = tested on: Rape; experiment: post-emergence herbicide test; settings: post-emergence, 0.25 lb/A; read-out: % plant inhibition
Method in brief: as §2

[30] = tested on: Seedling Johnsongrass; experiment: post-emergence herbicide test; settings: Sorghum halepense, post-emergence, 0.25 lb/A; read-out: % plant inhibition
Method in brief: as §2

[31] = tested on: Soybean; experiment: post-emergence herbicide test; settings: Glycine max, post-emergence, 0.25 lb/A; read-out: % plant inhibition
Method in brief: as §2

[32] = tested on: Velvetleaf; experiment: post-emergence herbicide test; settings: Abutilon theophrasti, post-emergence, 0.25 lb/A; read-out: % plant inhibition
Method in brief: as §2

[33] = tested on: Wheat; experiment: post-emergence herbicide test; settings: Triticum aestivum, post-emergence, 0.25 lb/A; read-out: % plant inhibition
Method in brief: as §2

[34] = tested on: Wild Oats; experiment: post-emergence herbicide test; settings: Avena fatua, post-emergence, 0.25 lb/A; read-out: % plant inhibition
Method in brief: as §2

SMILES | inhibition at 280.212 g/ha [1] [%] | inhibition at 280.212 g/ha [2] [%] | inhibition at 280.212 g/ha [3] [%] | inhibition at 280.212 g/ha [4] [%] | inhibition at 280.212 g/ha [5] [%] | inhibition at 280.212 g/ha [6] [%] | inhibition at 280.212 g/ha [8] [%] | inhibition at 280.212 g/ha [9] [%] | inhibition at 280.212 g/ha [10] [%] | inhibition at 280.212 g/ha [11] [%] | inhibition at 280.212 g/ha [12] [%] | inhibition at 280.212 g/ha [13] [%] | inhibition at 280.212 g/ha [15] [%] | inhibition at 280.212 g/ha [16] [%] | inhibition at 280.212 g/ha [17] [%] | inhibition at 280.212 g/ha [18] [%] | inhibition at 280.212 g/ha [19] [%] | inhibition at 280.212 g/ha [20] [%] | inhibition at 280.212 g/ha [21] [%] | inhibition at 280.212 g/ha [22] [%] | further results
Cc1c(-c2cc(C(=O)OCSC#N)c(Cl)cc2F)nn(C)c1C(F)(F)F [Compound 50] | 25 | 25 | 35 | 5 | 0 | 35 | 5 | 0 | 10 | 0 | 0 | 0 | 40 | 0 | 0 | 5 | 35 | 75 | 5 | 60 | inhibition at 280.212 g/ha [7]: 0%; inhibition at 280.212 g/ha [14]: 0%; inhibition at 280.212 g/ha [23]: 60%; inhibition at 280.212 g/ha [24]: 5%; inhibition at 280.212 g/ha [25]: 10%; inhibition at 280.212 g/ha [26]: 0%; inhibition at 280.212 g/ha [27]: 25%; inhibition at 280.212 g/ha [28]: 35%; inhibition at 280.212 g/ha [29]: 15%; inhibition at 280.212 g/ha [30]: 0%; inhibition at 280.212 g/ha [31]: 7%; inhibition at 280.212 g/ha [32]: 90%; inhibition at 280.212 g/ha [33]: 10%; inhibition at 280.212 g/ha [34]: 10%
Cc1c(-c2cc(C(=O)OCC(=O)c3ccccc3)c(Cl)cc2F)nn(C)c1C(F)(F)F [Compound 43] | 15 | 20 | 60 | 10 | 45 | 55 | 5 | 15 | 60 | 10 | 5 | 35 | 65 | 0 | 5 | 5 | 30 | 100 | 10 | 85 | inhibition at 280.212 g/ha [7]: 0%; inhibition at 280.212 g/ha [14]: 0%; inhibition at 280.212 g/ha [23]: 65%; inhibition at 280.212 g/ha [24]: 7%; inhibition at 280.212 g/ha [25]: 10%; inhibition at 280.212 g/ha [26]: 0%; inhibition at 280.212 g/ha [27]: 20%; inhibition at 280.212 g/ha [28]: 75%; inhibition at 280.212 g/ha [29]: 25%; inhibition at 280.212 g/ha [30]: 25%; inhibition at 280.212 g/ha [31]: 15%; inhibition at 280.212 g/ha [32]: 80%; inhibition at 280.212 g/ha [33]: 10%; inhibition at 280.212 g/ha [34]: 15%
CCOC(=O)c1cc(-c2nn(C)c(C(F)(F)F)c2C)c(F)cc1Cl [Compound 26, 2-chloro-5-[1,4-dimethyl-5-(trifluoromethyl)-1H-pyrazol-3-yl]-4-fluorobenzoic acid ethyl ester] | 100 | 50 | 100 | 95 | 85 | 100 | 55 | 99 | 100 | 90 | 40 | 100 | 100 | 0 | 65 | 95 | 60 | 85 | 35 | 85 | % plant inhibition [5]: 93% and 92%; % plant inhibition [9]: 100%; % plant inhibition [11]: 97% and 98%; inhibition at 280.212 g/ha [23]: 85%; inhibition at 280.212 g/ha [24]: 25%; inhibition at 280.212 g/ha [25]: 45%; inhibition at 280.212 g/ha [26]: 45%; inhibition at 280.212 g/ha [27]: 60%; inhibition at 280.212 g/ha [28]: 50%; inhibition at 280.212 g/ha [29]: 60%; inhibition at 280.212 g/ha [30]: 50%; inhibition at 280.212 g/ha [31]: 75%; inhibition at 280.212 g/ha [32]: 99%; inhibition at 280.212 g/ha [33]: 17%; inhibition at 280.212 g/ha [34]: 35%

— patent US5672715A, “Herbicidal substituted 3-aryl-pyrazoles” (Monsanto Company, priority 1995, dated 1997)
